{
  "source": "patent US12331053B2",
  "about": "“Method for obtaining amorphous remimazolam besylate” (MOEHS IBERICA, S.L., priority 2019, dated 2025)",
  "key": {"[1]": {"assay": "Stability study: storage in climatic chambers, solid form checked by XRPD and DSC", "assay_type": "physicochemical", "settings": "for solid form stability after storage (XRPD) / solid form stability after storage (XRPD, DSC): 40° C. and 80% relative humidity; for solid form stability after storage (XRPD): 6 months", "protocol": "The XRPD analysis was performed using a Siemens model D-5000 X-ray powder diffractometer equipped with a copper anode. The radiation used is CuKα with a wavelength of 1.541838 Å. Scanning parameters: 4-50 degrees 2θ, continuous scan, ratio: 1.2 degrees/minute.\nThe differential scanning calorimetry (DSC) analysis was performed in a Mettler Toledo 822e apparatus with STARe SW15.00 software. Parameters: range of heating from 25 to 300° C. with a ramp of 20° C./min and a N2 flow of 50 mL/min. The measurement was taken with a closed perforated capsule.\nThis is proven in the stability results of the product in amorphous form obtained according to assays 1.5 (lyophilization in acetonitrile) and 1.6 (lyophilization in water) indicated in Table 1. To determine said stability, the product was stored in climatic chambers under two different conditions: a) temperature of 40° C. and 80% relative humidity and b) temperature of 25° C. and 60% relative humidity."}, "[2]": {"settings": "free base, cited from earlier work"}, "[3]": {"settings": "lyophilized alone, without excipients; cited from earlier work"}},
  "note": "Read-outs that look alike come from different tables or passages of the source.",
  "data": [
    {"smiles": "COC(=O)CC[C@@H]1N=C(c2ccccn2)c2cc(Br)ccc2-n2c(C)cnc21.O=S(=O)(O)c1ccccc1", "note": "[Assay 1.6, remimazolam besylate]", "values": [
      {"measurement": "solid form stability after storage (XRPD)", "setting": "[1]", "value": "still maintains the initial characteristics in terms of the amorphous form"},
      {"measurement": "solid form stability after storage (XRPD, DSC)", "setting": "[1]; 15 days", "value": "still maintains the initial characteristics in terms of the amorphous form"}
    ]},
    {"smiles": "COC(=O)CC[C@@H]1N=C(c2ccccn2)c2cc(Br)ccc2-n2c(C)cnc21.O=S(=O)(O)c1ccccc1", "note": "[Assay 1.5, remimazolam besylate]", "values": [
      {"measurement": "solid form stability after storage (XRPD)", "setting": "[1]", "value": "still maintains the initial characteristics in terms of the amorphous form"},
      {"measurement": "solid form stability after storage (XRPD, DSC)", "setting": "[1]; 15 days", "value": "still maintains the initial characteristics in terms of the amorphous form"},
      {"measurement": "solid form stability after storage (XRPD, DSC)", "setting": "[1]; 30 days", "value": "still maintains the initial characteristics in terms of the amorphous form"}
    ]},
    {"smiles": "COC(=O)CC[C@@H]1N=C(c2ccccn2)c2cc(Br)ccc2-n2c(C)cnc21", "note": "[remimazolam, methyl 3-{(4S)-8-bromo-1-methyl-6-(pyridin-2-yl)-4H-imidazo[1,2-a][1,4]benzodiazepin-4-yl}propanoate]", "values": [
      {"measurement": "storage stability", "setting": "[2]; 40° C. and 75% relative humidity, open vial", "value": "behaves like a deliquescent solid"},
      {"measurement": "storage stability", "setting": "[2]; 60° C. and ambient humidity, closed vial", "value": "behaves like a deliquescent solid"},
      {"measurement": "storage stability", "setting": "[2]; stored at 5° C.", "value": "stable"}
    ]},
    {"smiles": "COC(=O)CC[C@@H]1N=C(c2ccccn2)c2cc(Br)ccc2-n2c(C)cnc21.O=S(=O)(O)c1ccccc1", "note": "[remimazolam besylate]", "values": [
      {"measurement": "stability after lyophilization", "setting": "[3]", "value": "did not result in satisfactory stability"}
    ]},
    {"smiles": "COC(=O)CC[C@@H]1N=C(c2ccccn2)c2cc(Br)ccc2-n2c(C)cnc21.O=S(=O)(O)c1ccccc1", "note": "[Comparative Example 3, remimazolam besylate]", "values": [
      {"measurement": "solid form after storage (XRPD)", "setting": "[1]; 4° C., one month", "value": "crystalline form 2"},
      {"measurement": "solid form after storage (XRPD, DSC)", "setting": "[1]; 40° C. and 80% RH, one week", "value": "crystalline form 2"}
    ]}
  ]
}
